Assay results: patent US20230374096A1, “OBESITY TREATMENT AND PREVENTION METHODS” (Vault Bioventures, Inc., priority 2022, published 2023)

Key:
Format in all cases: in vivo, human
[1] = Example 16: liraglutide and One-Meal-A-Day; conditions: One-Meal-A-Day; weeks 1-4: 0.75/1.5/1.5/2.25 mg; without exercise or caloric restriction
From the text: Patients are subject to a combination HMT/HNT treatment protocol as described in Table 20 below. […] [table]

[2] = Example 17: liraglutide and 15-hour fasting; conditions: weeks 1-4: 0.75/1.5/2.25/2.25 mg, without exercise or caloric restriction
From the text: Patients are subject to a combination HMT/HNT treatment protocol as described in Table 21 below. […] [table]

[3] = Example 18: liraglutide and 18-hour fasting; conditions: weeks 1-4: 0.75/1.5/1.5/2.25 mg, without exercise or caloric restriction
From the text: Patients are subject to a combination HMT/HNT treatment protocol as described in Table 22 below. […] [table]

[4] = Example 13: dulaglutide and One-Meal-A-Day; conditions: One-Meal-A-Day; weeks 1-4: 0.2/0.375/0.375/0.6 mg; without exercise or caloric restriction
From the text: Patients are subject to a combination HMT/HNT treatment protocol as described in Table 17 below. […] [table]

[5] = Example 14: dulaglutide and 15-hour fasting; conditions: weeks 1-4: 0.2/0.375/0.375/0.6 mg, without exercise or caloric restriction
From the text: Patients are subject to a combination HMT/HNT treatment protocol as described in Table 18 below. […] [table]

[6] = Example 15: dulaglutide and 18-hour fasting; conditions: weeks 1-4: 0.2/0.375/0.375/0.6 mg, without exercise or caloric restriction
From the text: Patients are subject to a combination HMT/HNT treatment protocol as described in Table 19 below. […] [table]

[7] = Example 1: clinical study combining semaglutide (injection) and fasting (HMT/HNT), Patient 1
From the text: Patient 1 was subject to a combination HMT/HNT treatment protocol as described below.

[8] = Example 2: semaglutide (injection) and 15-hour fasting; conditions: weeks 1-4: .25/.50/.50/1 mg, without exercise or caloric restriction
From the text: Patients are subject to a combination HMT/HNT treatment protocol as described in Table 6 below. […] [table]

[9] = Example 3: semaglutide (oral) and 18-hour fasting; conditions: weeks 1-4: .25/.50/.50/1 mg, without exercise or caloric restriction
From the text: Patients are subject to a combination HMT/HNT treatment protocol as described in Table 7 below. […] [table]

[10] = Example 4: semaglutide (oral) and One-Meal-A-Day; conditions: One-Meal-A-Day; weeks 1-4: 1/2/3.5/5 mg; without exercise or caloric restriction
From the text: Patients are subject to a combination HMT/HNT treatment protocol as described in Table 8 below. […] [table]

[11] = Example 5: semaglutide (oral) and 15-hour fasting; conditions: weeks 1-4: 1/2/3.5/5 mg, without exercise or caloric restriction
From the text: Patients are subject to a combination HMT/HNT treatment protocol as described in Table 9 below. […] [table]

[12] = Example 6: semaglutide (oral) and 18-hour fasting; conditions: weeks 1-4: 1/2/3.5/5 mg, without exercise or caloric restriction
From the text: Patients are subject to a combination HMT/HNT treatment protocol as described in Table 10 below. […] [table]

With `CCCCCCCCCCCCCCCC(=O)N[C@@H](CCC(=O)NCCCC[C@H](NC(=O)[C@H](C)NC(=O)[C@H](C)NC(=O)[C@H](CCC(N)=O)NC(=O)CNC(=O)[C@H](CCC(=O)O)NC(=O)[C@H](CC(C)C)NC(=O)[C@H](Cc1ccc(O)cc1)NC(=O)[C@H](CO)NC(=O)[C@H](CO)NC(=O)[C@@H](NC(=O)[C@H](CC(=O)O)NC(=O)[C@H](CO)NC(=O)[C@@H](NC(=O)[C@H](Cc1ccccc1)NC(=O)[C@@H](NC(=O)CNC(=O)[C@H](CCC(=O)O)NC(=O)[C@H](C)NC(=O)[C@@H](N)Cc1cnc[nH]1)[C@@H](C)O)[C@@H](C)O)C(C)C)C(=O)N[C@@H](CCC(=O)O)C(=O)N[C@@H](Cc1ccccc1)C(=O)N[C@H](C(=O)N[C@@H](C)C(=O)N[C@@H](Cc1c[nH]c2ccccc12)C(=O)N[C@@H](CC(C)C)C(=O)N[C@H](C(=O)N[C@@H](CCCNC(=N)N)C(=O)NCC(=O)N[C@@H](CCCNC(=N)N)C(=O)NCC(=O)O)C(C)C)[C@@H](C)CC)C(=O)O` [Liraglutide] the “Therapeutic effects (e.g. weight loss)” value [1] was “Desirable therapeutics effects (e.g. weigh loss) are achieved”, the “Therapeutic effects (e.g. weight loss)” value [2] was “Desirable therapeutics effects (e.g. weigh loss) are achieved” and the “Therapeutic effects (e.g. weight loss)” value [3] was “Desirable therapeutics effects (e.g. weigh loss) are achieved”.
With Dulaglutide the “Therapeutic effects (e.g. weight loss)” value [4] was “Desirable therapeutics effects (e.g. weigh loss) are achieved”, the “Therapeutic effects (e.g. weight loss)” value [5] was “Desirable therapeutics effects (e.g. weigh loss) are achieved” and the “Therapeutic effects (e.g. weight loss)” value [6] was “Desirable therapeutics effects (e.g. weigh loss) are achieved”.
For Semaglutide, the Weight lost ([7]; in 30 days, combination HMT/HNT) was 30 pounds, the Bodyweight reduction ([7]; starting weight 282 lbs, 30 days, weeks 1-4: .25/.50/.50/1 mg, One-Meal-A-Day) was −30 lbs and the “Therapeutic effects (e.g. weight loss)” value [8] was “Desirable therapeutics effects (e.g. weigh loss) are achieved”.
With Semaglutide [Semaglutide (oral)] the “Therapeutic effects (e.g. weight loss)” value [9] was “Desirable therapeutics effects (e.g. weigh loss) are achieved”, the “Therapeutic effects (e.g. weight loss)” value [10] was “Desirable therapeutics effects (e.g. weigh loss) are achieved” and the “Therapeutic effects (e.g. weight loss)” value [11] was “Desirable therapeutics effects (e.g. weigh loss) are achieved”. For the same compound, the “Therapeutic effects (e.g. weight loss)” value [12] was “Desirable therapeutics effects (e.g. weigh loss) are achieved”.
